The values that follow come from patent publication US20060089371A1, “Phenyl or heteroaryl amino alkane derivatives as ip receptor antagonist” (Bayer HealthCare AG, priority 2002, published 2006).

One data set has as its target T1, IP receptor (Homo sapiens, UniProt P43119).
T1 construct: one million cells in 160 μl aliquot of cell suspension were put in a well of 96 well plate; host or cells: HEL 92.1.7 human erythroleukemia cells (whole cells)
Nature of the data set: IP receptor binding/cAMP in HEL cells ([3H]-iloprost binding, Assay 1; iloprost-induced cAMP production, Assay 2). Conditions: compounds of about 40 to 90% purity, read-out: In vitro activity grade (IC50 class). The protocol:
[Measurement of the [^3H]-iloprost Binding to HEL Cells] (Assay 1)
A human erythloleukemia cell line, HEL 92.1.7, was purchased from American Type Culture Correction and maintained in RPMI-1640 medium (Gibco BRL) supplemented with 10% fetal calf serum (FCS), 2 mM glutamine, 4.5 g/L glucose, 10 mM Hepes, 1 mM sodium pyruvate, 100 U/ml penicillin, and 100 μg/ml streptomycin in a humidified 5% CO2 atmosphere at 37° C. Cells were collected with centrifugation and washed with binding assay buffer (BAB: 50 mM Tris-HCl, 5 mM MgCl2 (pH 7.5)). Cells were suspended at the density of 6.25×10^6 cells/ml in BAB, and one million cells in 160 μl aliquot of cell suspension were put in a well of 96 well plate (Falcon). Then, 20 μl of compound solution, 100 μM of iloprost (for non-specific binding), or buffer alone (total binding), diluted with 1% DMSO in BAB was added. Finally, another 20 μl containing [^3H]-iloprost (0.02 μCi, 0.5-1 pmol) in BAB was added and incubated at room temperature for 30 min with a gentle shaking. Cell suspension was then transferred to a well of MultiScreen plate with GF/C glass filters (Millipore) to harvest cells. Cells were washed twice with 200 μl of ice-cold BAB and the plate was kept at 55° C. for 30 min to dry filters. The filter in the well was punched out to a counting tube and 2 ml of Ultima Gold XR (Packard) was added. [^3H]-radio activity in the filter was measured by a liquid scintillation counter (Beckman, USA).
[Iloprost-Induced cAMP Production Assay in HEL Cells] (Assay 2)
HEL cells were collected with centrifugation and washed with cAMP assay buffer (CAB: Hank's balanced salt solution, 17 mM Hepes, 0.1% bovine serum albumin, 1 mM IBMX, 0.4% DMSO, and 1 mM L-ascorbic acid sodium salt (pH 7.4)). Cells were suspended at the density of 2.5×10^5 cells/ml in CAB, and twenty thousand cells in 80 μl aliquot of cell suspension were put in a well of 96 well plate (Falcon). Then, 10 μl of compound solution diluted with 1% DMSO in CAB or buffer alone was added. The plate was incubated at 37° C. for 30 min. Then, another 10 μl containing 100 nM iloprost in CAB or buffer alone was added and further incubated at 37° C. for 30 min. cAMP content in the well was measured by a cAMP ELISA kit (Applied Biosystems, USA).
The data corresponds to the compounds as yielded by solid phase synthesis and thus to levels of purity of about 40 to 90%. For practical reasons, the compounds are grouped in three classes of activity as follows: IC50=A<0.1 μM≦B<1 μM≦C
In general terms: Changes in cAMP serve as a functional read-out for many G protein-coupled receptors.

T1 sequence (P43119 whole entry): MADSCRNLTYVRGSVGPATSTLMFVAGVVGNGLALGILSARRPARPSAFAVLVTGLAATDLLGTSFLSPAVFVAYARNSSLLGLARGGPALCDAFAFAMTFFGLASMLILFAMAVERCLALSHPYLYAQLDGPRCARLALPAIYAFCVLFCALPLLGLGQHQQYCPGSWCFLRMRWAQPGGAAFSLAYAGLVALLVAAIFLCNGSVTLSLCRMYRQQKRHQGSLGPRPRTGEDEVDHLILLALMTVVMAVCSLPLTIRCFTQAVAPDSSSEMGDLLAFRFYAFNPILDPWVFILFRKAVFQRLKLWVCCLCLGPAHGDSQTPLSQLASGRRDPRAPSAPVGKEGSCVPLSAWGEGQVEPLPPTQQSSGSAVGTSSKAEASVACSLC

One may read the IC50 as the point on the concentration scale where inhibition reaches its midpoint. The melting point is the temperature of the solid-liquid transition. For `O=C(O)[C@H](Cc1ccccc1)Nc1cc(-c2ccc(OCc3ccccc3)cc2)ncn1` [Example 1-50], the melting point fell in the range of 150 to 155 °C. The IC50 on IP receptor is 0.1 to 1 µM.
As to `CCCCC(Nc1cc(-c2ccc(-c3ccccc3)cc2)ncn1)C(=O)O` (stereo not shown) [Example 1-56], the melting point fell in the range of 110 to 120 °C. Further, the IC50 on IP receptor fell in the range of 0.1 to 1 µM.
With `O=C(O)C(Cc1ccccc1)Nc1cc(-c2ccc(OCc3ccccc3)cc2F)ncn1` (stereo not shown) [Example 1-57], the melting point lay in the range of 133 to 136 °C. In addition, the IC50 on IP receptor fell in the range of 0.1 to 1 µM.
The corresponding values for `CN(c1cc(-c2ccc(OCc3ccccc3)cc2)ncn1)C(Cc1ccccc1)C(=O)O` (stereo not shown) [Example 1-58] are 112 to 115 °C and < 0.1 µM.
For `O=C(O)[C@H](Cc1ccccc1)Nc1cc(-c2ccc(OCC3CC3)cc2)ncn1` [Example 2-1, N-{6-[4-(Cyclopropylmethoxy)phenyl]pyrimidin-4-yl}phenylalanine], the melting point lay in the range of 216 to 218 °C. Also, at IP receptor, the IC50 was < 0.1 µM.
Regarding `COc1cc(COc2ccc(-c3cc(NC(Cc4ccccc4)C(=O)O)ncn3)cc2)cc(OC)c1` (stereo not shown) [Example 2-2], the melting point fell in the range of 90 to 93 °C. For the same compound, the IC50 at IP receptor was < 0.1 µM.
Taken in the same sequence, the figures for `O=C(O)C(Cc1ccccc1)Nc1cc(-c2ccc(OCc3cccc(F)c3)cc2)ncn1` (stereo not shown) [Example 2-3] were 175 to 177 °C and < 0.1 µM.
The corresponding values for `COc1cccc(COc2ccc(-c3cc(NC(Cc4ccccc4)C(=O)O)ncn3)cc2)c1` (stereo not shown) [Example 2-4] are 90 to 93 °C and < 0.1 µM.
`O=C(O)C(Cc1ccccc1)Nc1cc(-c2ccc(O)cc2)ncn1` (stereo not shown) [Example 2-5]: the melting point lay in the range of 223 to 227 °C. Also, the IC50 on IP receptor was > 1 µM.
The corresponding values for `O=C(O)C(Cc1ccccc1)Nc1cc(-c2ccc(OCc3ccccc3F)cc2)ncn1` (stereo not shown) [Example 2-6] are 220 to 223 °C (dec.) and < 0.1 µM.
With `O=C(O)C(Cc1ccccc1)Nc1cc(-c2ccc(OCc3ccc(F)cc3)cc2)ncn1` (stereo not shown) [Example 2-7], the melting point is 228 to 230 °C (dec.). In addition, the IC50 on IP receptor was < 0.1 µM.
`O=C(O)C(Cc1ccccc1)Nc1cc(-c2ccc(OCC3CCCCC3)cc2)ncn1` (stereo not shown) [Example 2-8] displayed a melting point of 118 to 120 °C. Besides, at IP receptor, the concentration for half-maximal inhibition (IC50) is < 0.1 µM.
Taken in the same sequence, the figures for `O=C(O)C(Cc1ccccc1)Nc1cc(-c2ccc(OCCn3cccc3)cc2)ncn1` (stereo not shown) [Example 2-9] were 209 to 211 °C and < 0.1 µM.
Regarding `CCCCOc1ccc(-c2cc(NC(Cc3ccccc3)C(=O)O)ncn2)cc1` (stereo not shown) [Example 2-10], the melting point was in the range of 205 to 208 °C. The IC50 at IP receptor was < 0.1 µM.
Taken in the same sequence, the figures for `O=C(O)C(Cc1ccccc1)Nc1cc(-c2ccc(OCc3cc(F)cc(F)c3)cc2)ncn1` (stereo not shown) [Example 2-11] were 207 to 210 °C (dec.) and < 0.1 µM.
With `CC(C)Oc1ccc(-c2cc(NC(Cc3ccccc3)C(=O)O)ncn2)cc1` (stereo not shown) [Example 2-12], the melting point was 201 to 204 °C (dec.). The IC50 at IP receptor was < 0.1 µM.
Turning to `COc1ccc(-c2cc(NC(Cc3ccccc3)C(=O)O)ncn2)cc1` (stereo not shown) [Example 2-13], the melting point is 203 to 206 °C (dec.). At IP receptor, the IC50 lay in the range of 0.1 to 1 µM.
For `O=C(O)C(Cc1ccccc1)Nc1cc(-c2ccc(OCc3cccc(O)c3)cc2)ncn1` (stereo not shown) [Example 2-14], the melting point is 190 to 193 °C (dec.). Also, the 50% inhibitory concentration (IC50) on IP receptor is < 0.1 µM.
On to `O=C(O)C(Cc1ccccc1)Nc1cc(-c2ccc(OCC3CCC3)cc2)ncn1` (stereo not shown) [Example 2-15], for which the melting point was 210 to 213 °C (dec.). Moreover, the IC50 on IP receptor is < 0.1 µM.
Consider `O=C(O)C(Cc1ccccc1)Nc1cc(-c2ccc(OCCc3ccccc3)cc2)ncn1` (stereo not shown) [Example 2-16], for which the melting point was 214 to 216 °C (dec.). The IC50 on IP receptor was < 0.1 µM.
Taken in the same sequence, the figures for `CC(C)COc1ccc(-c2cc(NC(Cc3ccccc3)C(=O)O)ncn2)cc1` (stereo not shown) [Example 2-17] were 210 to 213 °C (dec.) and < 0.1 µM.
Taken in the same sequence, the figures for `O=C(O)C(Cc1ccccc1)Nc1cc(-c2ccc(OCC3CCCC3)cc2)ncn1` (stereo not shown) [Example 2-20] were 125 to 128 °C and < 0.1 µM.
Taken in the same sequence, the figures for `O=C(O)C(Cc1ccccc1)Nc1cc(-c2ccc(OCc3cccnc3)cc2)ncn1` (stereo not shown) [Example 2-21] were 135 to 136 °C (dec.) and < 0.1 µM.
`O=C(O)C(Cc1ccccc1)Nc1cc(-c2ccc(OCCN3CCCC3)cc2)ncn1` (stereo not shown) [Example 2-22] returned a melting point of 117 to 120 °C. Besides, the IC50 at IP receptor was > 1 µM.
Taken in the same sequence, the figures for `O=C(O)C(Cc1ccccc1)Nc1cc(-c2ccc(OCCc3cccnc3)cc2)ncn1` (stereo not shown) [Example 2-23] were 85 to 88 °C and < 0.1 µM.
The corresponding values for `COCCOc1ccc(-c2cc(NC(Cc3ccccc3)C(=O)O)ncn2)cc1` (stereo not shown) [Example 2-24] are 190 to 193 °C (dec.) and < 0.1 µM.
For `O=C(O)C(Cc1ccccc1)Nc1cc(-c2ccc(OCCCc3ccccc3)cc2)ncn1` (stereo not shown) [Example 2-25], the melting point lay in the range of 101 to 104 °C. Besides, the IC50 at IP receptor is < 0.1 µM.
The corresponding values for `O=C(O)C(Cc1ccccc1)Nc1cc(-c2ccc(OCCc3ccccn3)cc2)ncn1` (stereo not shown) [Example 2-26] are 120 to 122 °C (dec.) and < 0.1 µM.
The corresponding values for `O=C(O)C(Cc1ccccc1)Nc1cc(-c2ccc(OCCc3ccncc3)cc2)ncn1` (stereo not shown) [Example 2-27] are 113 to 115 °C and < 0.1 µM.
For the compound `O=C(O)C(Cc1ccccc1)Nc1cc(-c2ccc(OCc3ccccn3)cc2)ncn1` (stereo not shown) [Example 2-28], the melting point was 120 to 123 °C. Moreover, the IC50 on IP receptor is < 0.1 µM.
In the case of `O=C(O)C(Cc1ccccc1)Nc1cc(-c2ccc(OCc3ccncc3)cc2)ncn1` (stereo not shown) [Example 2-29], the melting point fell in the range of 110 to 113 °C. In addition, the IC50 at IP receptor was < 0.1 µM.
`O=C(O)C(Cc1cccc(O)c1)Nc1cc(-c2ccc(OCc3ccccc3)cc2)ncn1` (stereo not shown) [Example 2-30] had a melting point of 169 °C. In addition, the IC50 at IP receptor was < 0.1 µM.
Taken in the same sequence, the figures for `O=C(O)C(Cc1ccccc1)Nc1cc(-c2ccc(OCC(F)(F)F)cc2)ncn1` (stereo not shown) [Example 2-31] were 109 to 112 °C and < 0.1 µM.
Taken in the same sequence, the figures for `O=C(O)C(Cc1ccccn1)Nc1cc(-c2ccc(OCc3ccccc3F)cc2)ncn1` (stereo not shown) [Example 2-32] were 84 to 87 °C and < 0.1 µM.
The compound `O=C(O)C(Cc1ccccn1)Nc1cc(-c2ccc(OCc3cccc(F)c3)cc2)ncn1` (stereo not shown) [Example 2-33] returned a melting point of 92 to 95 °C. For the same compound, the IC50 at IP receptor is < 0.1 µM.
The compound `CCCCC(Nc1cc(-c2ccc(OCc3ccccc3F)cc2)ncn1)C(=O)O` (stereo not shown) [Example 2-34] displayed a melting point of 85 to 90 °C. In addition, the IC50 at IP receptor was < 0.1 µM.
As for `CCCCC(Nc1cc(-c2ccc(OCc3cccc(F)c3)cc2)ncn1)C(=O)O` (stereo not shown) [Example 2-35], the melting point fell in the range of 181 to 186 °C. For the same compound, on IP receptor, the IC50 is < 0.1 µM.
Taken in the same sequence, the figures for `O=C(O)C(Cc1ccccn1)Nc1cc(-c2ccc(OCCc3ccccc3)cc2)ncn1` (stereo not shown) [Example 2-38] were 52 to 53 °C and < 0.1 µM.
